Data taken from US20260102359A1, “COMBINATION TREATMENT OF DERMAL AND TRANSDERMAL FIBROTIC DISEASES, DISORDERS AND ASSOCIATED PAIN AND INFLAMMATION” (ERESINA, LLC, priority 2022, published 2026).
Where a name gives a salt, the structure may show the parent alone. Where a SMILES comes first, the peptide text is derived from it.

system: hDMFa myofibroblast cells

Row | SMILES | Compound Myofibroblast Cytotoxicity Activity
1 | CC(=O)OCC(CCn1cnc2cnc(N)nc21)COC(C)=O [Cmpd 447, Famciclovir] | +++
2 | CCOC(=O)C1=C(C)NC(C)=C(C(=O)OC)C1c1cccc(Cl)c1Cl (centres unmarked) [Cmpd 449, Felodipine] | +++
3 | CC(NCCC(c1ccccc1)c1ccccc1)c1ccccc1 (centres unmarked) [Cmpd 450, Fendiline (hydrochloride)] | +++
4 | Clc1ccc(C(Cn2ccnc2)OCc2ccc(Sc3ccccc3)cc2)c(Cl)c1 (centres unmarked) [Cmpd 452, Fenticonazole Nitrate] | ++++
5 | COc1cc(/C=C/C(=O)O)ccc1O [Cmpd 453, Ferulic Acid] | ++
6 | CCc1c(Cl)c(O)c(Cl)c(O)c1C(=O)O[C@H]1[C@H](O)[C@H](OC)[C@H](OC/C2=C\C=C\C[C@H](O)/C(C)=C/[C@H](CC)[C@@H](O[C@@H]3OC(C)(C)[C@@H](OC(=O)C(C)C)[C@H](O)[C@@H]3O)/C(C)=C/C(C)=C/C[C@@H]([C@@H](C)O)OC2=O)O[C@@H]1C [Cmpd 454, Fidaxomicin] | +++++
7 | CCC(=O)c1c(O)cc(O)cc1O [Cmpd 458, Flopropione] | ++
8 | O=c1[nH]c(=O)n([C@H]2C[C@H](O)[C@@H](CO)O2)cc1F [Cmpd 459, Floxuridine] | +++
9 | Cl.Cl.Fc1ccc(C(c2ccc(F)cc2)N2CCN(C/C=C/c3ccccc3)CC2)cc1 [Cmpd 460, Flunarizine 2HCl] | ++
10 | CC1(C)O[C@@H]2C[C@H]3[C@@H]4C[C@H](F)C5=CC(=O)C=C[C@]5(C)[C@H]4[C@@H](O)C[C@]3(C)[C@]2(C(=O)CO)O1 [Cmpd 461, Flunisolide] | ++
11 | O=C1OC2(c3ccc(O)cc3Oc3cc(O)ccc32)c2ccccc21 [Cmpd 462, Fluorescein] | ++
12 | CC(=O)[C@@]1(O)CC[C@H]2[C@@H]3C[C@H](C)C4=CC(=O)C=C[C@]4(C)[C@@]3(F)[C@@H](O)C[C@@]21C [Cmpd 463, Fluorometholone] | ++
13 | CNCCC(Oc1ccc(C(F)(F)F)cc1)c1ccccc1 (centres unmarked) [Cmpd 464, Fluoxetine HCl] | +++
14 | Cl.Cl.OCCN1CCN(CCCN2c3ccccc3Sc3ccc(C(F)(F)F)cc32)CC1 [Cmpd 465, Fluphenazine dihydrochloride] | +++++
15 | COCCCC/C(=N\OCCN)c1ccc(C(F)(F)F)cc1 [Cmpd 466, Fluvoxamine maleate] | ++
16 | Nc1nc2ncc(CNc3ccc(C(=O)N[C@@H](CCC(=O)O)C(=O)O)cc3)nc2c(=O)[nH]1 [Cmpd 467, Folic acid] | ++
17 | Nc1nc(=O)c2c([nH]1)NCC(CNc1ccc(C(=O)N[C@@H](CCC(=O)[O-])C(=O)[O-])cc1)N2C=O.[Ca+2] (some centres unmarked) [Cmpd 468, Folinic Acid (calcium salt)] | +++
18 | CNC(=O)c1c(C)oc2cc(Oc3ncnc4cc(OC)c(OC)cc34)ccc12 [Cmpd 472, Fruquintinib(HMPL-013)] | ++++
19 | N[C@@H](CSCCCO)C(=O)O [Cmpd 473, Fudosteine] | ++++
20 | CC(=O)O[C@H]1C[C@@]2(C)[C@@H](C[C@@H](O)[C@H]3[C@@]4(C)CC[C@@H](O)[C@@H](C)[C@@H]4CC[C@@]32C)/C1=C(\CCC=C(C)C)C(=O)O [Cmpd 477, Fusidic Acid (sodium salt)] | +++
21 | CC(C)=C1C/C=C(\C)CC/C=C(\C)CC1=O [Cmpd 482, Germacrone] | +++++

Row | SMILES | Compound Myofibroblast Cytotoxicity Activity
22 | COc1ccc2c(c1)C(=O)N(CCc1ccc(S(=O)(=O)NC(=O)NC3CCCCC3)cc1)C(=O)C2(C)C [Cmpd 485, Gliquidone] | ++
23 | NCC(=O)O [Cmpd 487, Glycine (GLY)] | ++++
24 | C[C@H](CCC(=O)NCC(=O)O)[C@H]1CC[C@H]2[C@@H]3[C@H](O)C[C@@H]4C[C@H](O)CC[C@]4(C)[C@H]3C[C@H](O)[C@]12C [Cmpd 488, Glycocholic Acid] | ++++
25 | NCC(=O)NCC(=O)O [Cmpd 489, Glycylglycine] (H-Gly-Gly-OH) | ++
26 | C[C@]1(OC(=O)/C=C/c2ccccc2)C[C@@H](O)[C@]2(O)C=CO[C@@H](O[C@@H]3O[C@H](CO)[C@@H](O)[C@H](O)[C@H]3O)[C@@H]21 [Cmpd 499, Harpagoside] | ++
27 | COc1ccc([C@@H]2CC(=O)c3c(O)cc(O)cc3O2)cc1O [Cmpd 503, Hesperitin] | ++
28 | Oc1c(Cl)cc(Cl)c(Cl)c1Cc1c(O)c(Cl)cc(Cl)c1Cl [Cmpd 504, Hexachlorophene] | +++++
29 | C[Si]1(C)O[Si](C)(C)O[Si](C)(C)O1 [Cmpd 505, Hexamethylcyclotrisiloxane] | +
30 | CC[C@H]1CN2CC[C@H]1C[C@@H]2[C@@H](O)c1ccnc2ccc(OC)cc12 [Cmpd 508, Hydroquinidine] | ++
31 | Oc1ccc(O)cc1 [Cmpd 509, Hydroquinone] | ++
32 | CC(=O)[C@]1(O)Cc2c(O)c3c(c(O)c2[C@@H](O[C@H]2C[C@H](N)[C@H](O)[C@H](C)O2)C1)C(=O)c1ccccc1C3=O [Cmpd 515, Idarubicin HCl] | +++++
33 | O=P1(NCCCl)OCCCN1CCCl (centres unmarked) [Cmpd 518, Ifosfamide] | +++
34 | CN(C)CCCN1c2ccccc2CCc2ccccc21 [Cmpd 523, Imipramine (hydrochloride)] | +++
35 | CC1Cc2ccccc2N1NC(=O)c1ccc(Cl)c(S(N)(=O)=O)c1 (centres unmarked) [Cmpd 527, Indapamide] | +++
36 | O=C1/C(=C2\Nc3ccc(S(=O)(=O)[O-])cc3C2=O)Nc2ccc(S(=O)(=O)[O-])cc21.[Na+].[Na+] [Cmpd 528, Indigo carmine] | ++
37 | NC(=O)c1ccc(I)c([N+](=O)[O-])c1 [Cmpd 531, Iniparib (BSI-201)] | +++++
38 | Clc1ccc(C(Cn2ccnc2)OCc2c(Cl)cccc2Cl)c(Cl)c1 (centres unmarked) [Cmpd 535, Isoconazole nitrate] | +++
39 | CC=Cc1ccc(O)c(OC)c1 [Cmpd 536, Isoeugenol] | ++
40 | O=C(O)c1ccncc1 [Cmpd 537, Isonicotinic acid] | ++++
41 | CC(=O)Nc1ccc(C(=O)O)cc1.CC(=O)Nc1ccc(C(=O)O)cc1.CC(=O)Nc1ccc(C(=O)O)cc1.CC(O)CN(C)C.CC(O)CN(C)C.CC(O)CN(C)C.O=c1[nH]cnc2c1ncn2[C@@H]1O[C@H](CO)[C@@H](O)[C@H]1O [Cmpd 538, Isoprinosine] | ++
42 | CC(C)NCC(O)c1ccc(O)c(O)c1 (centres unmarked) [Cmpd 539, Isoproterenol sulfate dihydrate] | ++

Row | SMILES | Compound Myofibroblast Cytotoxicity Activity
43 | O=[N+]([O-])O[C@@H]1CO[C@H]2[C@@H]1OC[C@@H]2O [Cmpd 540, Isosorbide 5-mononitrate] | ++
44 | CC(COc1ccccc1)NC(C)C(O)c1ccc(O)cc1 (centres unmarked) [Cmpd 542, Isoxsuprine (hydrochloride)] | ++
45 | Cc1ccc(C(=O)N(CCCN)[C@@H](c2nc3cc(Cl)ccc3c(=O)n2Cc2ccccc2)C(C)C)cc1 [Cmpd 543, Ispinesib (SB-715992)] | +++++
46 | COC(=O)C1=C(C)NC(C)=C(C(=O)OC(C)C)C1c1cccc2nonc12 (centres unmarked) [Cmpd 544, Isradipine (Dynacirc)] | ++
47 | C[C@H]1O[C@H](OC2[C@@H](O)[C@@H](O)C(O)[C@H](O)[C@H]2O)[C@@H](N)C[C@@H]1N=C(N)C(=O)O.Cl (some centres unmarked) [Cmpd 548, Kasugamycin (hydrochloride)] | +++
48 | CC(CCc1ccccc1)NCC(O)c1ccc(O)c(C(N)=O)c1 (centres unmarked) [Cmpd 553, Labetalol HCl] | ++
49 | CS(=O)(=O)CCNCc1ccc(-c2ccc3ncnc(Nc4ccc(OCc5cccc(F)c5)c(Cl)c4)c3c2)o1 [Cmpd 558, Lapatinib Ditosylate] | +++
50 | CCN(C(=O)c1c(O)c2c(Cl)cccc2n(C)c1=O)c1ccccc1 [Cmpd 559, Laquinimod (ABR-215062)] | ++++
51 | N=C(N)NCCC[C@H](N)C(=O)O [Cmpd 561, L-Arginine] | ++
52 | O=C1O[C@H]([C@@H](O)CO)C(O)=C1O [Cmpd 562, L-Ascorbic Acid (Vitamin C)] | +
53 | CCCCCCCCCCCC(=O)O [Cmpd 564, Lauric Acid] | ++
54 | CCCCCCCCCCCCN1CCCCCC1=O [Cmpd 565, Laurocapram] | +++++
55 | Cc1c(C(=O)Nc2ccc(N3C[C@@H](C)O[C@@H](C)C3)nc2)cccc1-c1ccc(OC(F)(F)F)cc1.O=P(O)(O)O.O=P(O)(O)O [Cmpd 572, LDE225 Diphosphate] | ++
56 | Cl.c1ccc2c(-c3cnn4cc(-c5ccc(N6CCNCC6)cc5)cnc34)ccnc2c1 [Cmpd 574, LDN193189 Hydrochloride] | +++++
57 | c1cc(-c2cnn3cc(-c4ccc(N5CCNCC5)cc4)cnc23)c2cccnc2c1 [Cmpd 575, LDN-212854] | ++++
58 | Nc1cccc2c1CN(C1CCC(=O)NC1=O)C2=O (centres unmarked) [Cmpd 578, Lenalidomide (CC-5013)] | ++
59 | CCOC(=O)C1=C(COCCN)NC(C)=C(C(=O)OC)[C@@H]1c1ccccc1Cl [Cmpd 580, Levamlodipine] | +++++
60 | CC(=O)CCC(=O)O [Cmpd 583, Levulinic acid] | ++
61 | N[C@@H](CCC(=O)O)C(=O)[O-].[Na+] [Cmpd 584, L-Glutamic acid monosodium salt] | ++
62 | N[C@@H](CCC(=O)N[C@@H](CS)C(=O)NCC(=O)O)C(=O)O [Cmpd 585, L-Glutathione Reduced] | ++++
